This experiment relates to Endogenous Huntingtin Protein. Nature of the experiment: Endogenous Huntingtin Protein Assay (MSD plates, MW1 or MAB2166 capture antibody). It is filed as cell-based. The following applies: Table 1. A digest of the protocol:
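Endogenous huntingtin was captured overnight at 4° C on wells coated with 1 μg/mL MW1 (polyglutamine-specific) or MAB2166. Detection used rabbit #5656S and then goat anti-rabbit SULFO-TAG, both at 0.25 μg/mL and 1 h at room temperature. Plates were imaged on the MSD system in read buffer T.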

One may read the IC50 as the concentration needed to halve the response being measured. In the case of `Fc1cc(-c2nc3sc(N4CC5(CCNCC5)C4)nc3s2)c(F)cc1-c1cn[nH]c1` [Compound 177, 2-{5-[2,5-difluoro-4-(1H-pyrazol-4-yl)phenyl][1,3]thiazolo[5,4-d][1,3]thiazol-2-yl}-2,7-diazaspiro[3.5]nonane], the IC50 lay in the range of 1000 to 3000 nM.
`CN(c1nc2sc(-n3ccc(-c4cn[nH]c4)cc3=O)nc2s1)[C@@H]1C[C@H]2CC[C@@H](C1)N2C` [Compound 178, 1-(5-{methyl[(1R,3s,5S)-8-methyl-8-azabicyclo[3.2.1]octan-3-yl]amino}[1,3]thiazolo[5,4-d][1,3]thiazol-2-yl)-4-(1H-pyrazol-4-yl)pyridin-2(1H)-one] yielded an IC50 of at most 100 nM.
`CN1CCC2(CC1)CCN2c1nc2sc(-c3ncc(-c4cn[nH]c4)cc3O)nc2s1` [Compound 179, 2-[5-(7-methyl-1,7-diazaspiro[3.5]nonan-1-yl)[1,3]thiazolo[5,4-d][1,3]thiazol-2-yl]-5-(1H-pyrazol-4-yl)pyridin-3-ol] had an IC50 of at most 100 nM.
With `CC1CC(N(C)c2nc3sc(-n4ccc(-c5cn[nH]c5)cc4=O)nc3s2)CCN1C` (centres unmarked) [Compound 180, 1-{5-[(1,2-dimethylpiperidin-4-yl)(methyl)amino][1,3]thiazolo[5,4-d][1,3]thiazol-2-yl}-4-(1H-pyrazol-4-yl)pyridin-2(1H)-one], the 50% inhibitory concentration (IC50) was at most 100 nM.
The value for `CN(c1nc2sc(-n3ccc(-c4cn[nH]c4)cc3=O)nc2s1)C1CC(C)(C)NC(C)(C)C1` [Compound 181, 1-{5-[methyl(2,2,6,6-tetramethylpiperidin-4-yl)amino][1,3]thiazolo[5,4-d][1,3]thiazol-2-yl}-4-(1H-pyrazol-4-yl)pyridin-2(1H)-one] was at most 100 nM; that for `CC1CC(N(C)c2nc3sc(-c4ncc(-c5cn[nH]c5)cc4O)nc3s2)CCN1C` (centres unmarked) [Compound 182, 2-{5-[(1,2-dimethylpiperidin-4-yl)(methyl)amino][1,3]thiazolo[5,4-d][1,3]thiazol-2-yl}-5-(1H-pyrazol-4-yl)pyridin-3-ol] was at most 100 nM; that for `CN(c1nc2sc(-c3ccc(-c4cn[nH]c4)c4cc[nH]c34)nc2s1)[C@@H]1C[C@H]2CC[C@@H](C1)N2` [Compound 183, N-[(1R,3s,5S)-8-azabicyclo[3.2.1]octan-3-yl]-N-methyl-5-[4-(1H-pyrazol-4-yl)-1H-indol-7-yl][1,3]thiazolo[5,4-d][1,3]thiazol-2-amine] was at most 100 nM.
For the molecule `CN(c1nc2sc(-c3ncc(-c4cn[nH]c4)c4cc[nH]c34)nc2s1)[C@@H]1C[C@H]2CC[C@@H](C1)N2` [Compound 184, N-[(1R,3s,5S)-8-azabicyclo[3.2.1]octan-3-yl]-N-methyl-5-[4-(1H-pyrazol-4-yl)-1H-pyrrolo[2,3-c]pyridin-7-yl][1,3]thiazolo[5,4-d][1,3]thiazol-2-amine], the half-maximal inhibitory concentration (IC50) is at most 100 nM.
`CN(c1nc2sc(-c3ncc(Br)cc3O)nc2s1)[C@@H]1C[C@H]2CC[C@@H](C1)N2` [Compound 185, 2-(5-{[(1R,3s,5S)-8-azabicyclo[3.2.1]octan-3-yl](methyl)amino}[1,3]thiazolo[5,4-d][1,3]thiazol-2-yl)-5-bromopyridin-3-ol] came in with a half-maximal inhibitory concentration (IC50) of at most 100 nM.
The value for `CN(c1nc2sc(-c3ncc(Br)cn3)nc2s1)[C@@H]1C[C@H]2CC[C@@H](C1)N2` [Compound 186, N-[(1R,3s,5S)-8-azabicyclo[3.2.1]octan-3-yl]-5-(5-bromopyrimidin-2-yl)-N-methyl[1,3]thiazolo[5,4-d][1,3]thiazol-2-amine] was at most 100 nM.
Molecule `CN(c1nc2sc(-n3ccccc3=O)nc2s1)[C@@H]1C[C@H]2CC[C@@H](C1)N2` [Compound 187, 1-(5-{[(1R,3s,5S)-8-azabicyclo[3.2.1]octan-3-yl](methyl)amino}[1,3]thiazolo[5,4-d][1,3]thiazol-2-yl)pyridin-2(1H)-one] came in with an IC50 of 100 to 500 nM.
`CN(c1nc2sc(-n3ccc(-c4cn[nH]c4)cc3=O)nc2s1)C1CCNCC1` [Compound 188, 1-{5-[methyl(piperidin-4-yl)amino][1,3]thiazolo[5,4-d][1,3]thiazol-2-yl}-4-(1H-pyrazol-4-yl)pyridin-2(1H)-one] showed an IC50 of at most 100 nM.
Take `Oc1cc(-c2cn[nH]c2)cnc1-c1nc2sc(N3CCC34CCNCC4)nc2s1` [Compound 189, 2-[5-(1,7-diazaspiro[3.5]nonan-1-yl)[1,3]thiazolo[5,4-d][1,3]thiazol-2-yl]-5-(1H-pyrazol-4-yl)pyridin-3-ol]: the IC50 lay in the range of 100 to 500 nM.
In the case of `Cc1cnn(-c2cnc(-c3nc4sc(N(C)[C@@H]5C[C@H]6CC[C@@H](C5)N6)nc4s3)c(O)c2)c1` [Compound 190, 2-(5-{[(1R,3s,5S)-8-azabicyclo[3.2.1]octan-3-yl](methyl)amino}[1,3]thiazolo[5,4-d][1,3]thiazol-2-yl)-5-(4-methyl-1H-pyrazol-1-yl)pyridin-3-ol] it was at most 100 nM; in that of `CN(c1nc2sc(-c3ncc(-c4ccn(C)c(=O)c4)cc3O)nc2s1)[C@@H]1C[C@H]2CC[C@@H](C1)N2` [Compound 191, 6-(5-{[(1R,3s,5S)-8-azabicyclo[3.2.1]octan-3-yl](methyl)amino}[1,3]thiazolo[5,4-d][1,3]thiazol-2-yl)-5-hydroxy-1′-methyl[3,4′-bipyridin]-2′(1′H)-one], at most 100 nM.
Take `Oc1cc(-c2cn[nH]c2)cnc1-c1nc2sc(N3CC4(CCCNC4)C3)nc2s1` [Compound 192, 2-[5-(2,6-diazaspiro[3.5]nonan-2-yl)[1,3]thiazolo[5,4-d][1,3]thiazol-2-yl]-5-(1H-pyrazol-4-yl)pyridin-3-ol]: the IC50 is at most 100 nM.
The value for `CN(c1nc2sc(-c3ncc(-n4cc(F)cn4)cc3O)nc2s1)[C@@H]1C[C@H]2CC[C@@H](C1)N2` [Compound 193, 2-(5-{[(1R,3s,5S)-8-azabicyclo[3.2.1]octan-3-yl](methyl)amino}[1,3]thiazolo[5,4-d][1,3]thiazol-2-yl)-5-(4-fluoro-1H-pyrazol-1-yl)pyridin-3-ol] was at most 100 nM; that for `CN(c1nc2sc(-c3ncc(-c4cn[nH]c4)cn3)nc2s1)[C@@H]1C[C@H]2CC[C@@H](C1)N2` [Compound 194, N-[(1R,3s,5S)-8-azabicyclo[3.2.1]octan-3-yl]-N-methyl-5-[5-(1H-pyrazol-4-yl)pyrimidin-2-yl][1,3]thiazolo[5,4-d][1,3]thiazol-2-amine] was at most 100 nM.
As to `CN(c1nc2sc(-n3ccc(-c4cn[nH]c4)cc3=O)nc2s1)[C@@H]1C[C@H]2CC[C@@H](C1)N2` [Compound 195, 1-(5-{[(1R,3s,5S)-8-azabicyclo[3.2.1]octan-3-yl](methyl)amino}[1,3]thiazolo[5,4-d][1,3]thiazol-2-yl)-4-(1H-pyrazol-4-yl)pyridin-2(1H)-one], the IC50 is at most 100 nM.
Molecule `CN1CCC2(CC1)CN(c1nc3sc(-c4ncc(-c5cn[nH]c5)cc4O)nc3s1)C2` [Compound 196, 2-[5-(7-methyl-2,7-diazaspiro[3.5]nonan-2-yl)[1,3]thiazolo[5,4-d][1,3]thiazol-2-yl]-5-(1H-pyrazol-4-yl)pyridin-3-ol] gave an IC50 of at most 100 nM.
The value for `Oc1cc(-c2cn[nH]c2)cnc1-c1nc2sc(N3CC4(CC5CCC(C4)N5)C3)nc2s1` [Compound 197, 5-(1H-pyrazol-4-yl)-2-[5-(spiro[8-azabicyclo[3.2.1]octane-3,3′-azetidin]-1′-yl)[1,3]thiazolo[5,4-d][1,3]thiazol-2-yl]pyridin-3-ol] was 1000 to 3000 nM.
The value for `Oc1cc(-c2cn[nH]c2)ccc1-c1nc2sc(N3CC4(CC5CCC(C4)N5)C3)nc2s1` [Compound 198, 5-(1H-pyrazol-4-yl)-2-[5-(spiro[8-azabicyclo[3.2.1]octane-3,3′-azetidin]-1′-yl)[1,3]thiazolo[5,4-d][1,3]thiazol-2-yl]phenol] was 500 to 1000 nM; that for `Cc1ncc(-c2cnc(-c3nc4sc(N(C)[C@@H]5C[C@H]6CC[C@@H](C5)N6)nc4s3)c(O)c2)s1` [Compound 199, 2-(5-{[(1R,3s,5S)-8-azabicyclo[3.2.1]octan-3-yl](methyl)amino}[1,3]thiazolo[5,4-d][1,3]thiazol-2-yl)-5-(2-methyl-1,3-thiazol-5-yl)pyridin-3-ol] was at most 100 nM.
The molecule `COc1cc(-c2cn[nH]c2)ccc1-c1nc2sc(N(C)C3CCNCC3)nc2s1` [Compound 200, 5-[2-methoxy-4-(1H-pyrazol-4-yl)phenyl]-N-methyl-N-(piperidin-4-yl)[1,3]thiazolo[5,4-d][1,3]thiazol-2-amine] yielded an IC50 of 1000 to 3000 nM.
In the case of `CN(c1nc2sc(-c3ncc(-c4cn[nH]c4)cn3)nc2s1)C1CCNCC1` [Compound 201, N-methyl-N-(piperidin-4-yl)-5-[5-(1H-pyrazol-4-yl)pyrimidin-2-yl][1,3]thiazolo[5,4-d][1,3]thiazol-2-amine] it was 500 to 1000 nM; in that of `CN(c1nc2sc(-c3ccc(-c4cn[nH]c4)cc3O)nc2s1)[C@H]1CCN[C@@H](CO)C1` [Compound 202, 2-(5-{[(2R,4S)-2-(hydroxymethyl)piperidin-4-yl](methyl)amino}[1,3]thiazolo[5,4-d][1,3]thiazol-2-yl)-5-(1H-pyrazol-4-yl)phenol], at most 100 nM.
The molecule `CN(c1nc2sc(-c3ncc(-c4cn[nH]c4)cc3O)nc2s1)[C@@H]1C[C@H]2CC[C@@H](C1)N2` [Compound 203, 2-(5-{[(1R,3s,5S)-8-azabicyclo[3.2.1]octan-3-yl](methyl)amino}[1,3]thiazolo[5,4-d][1,3]thiazol-2-yl)-5-(1H-pyrazol-4-yl)pyridin-3-ol] displayed an IC50 of at most 100 nM.
The value for `CN(c1nc2sc(-c3ncc(-c4cn[nH]c4)cc3O)nc2s1)C1CCN(C2CC2)CC1` [Compound 204, 2-{5-[(1-cyclopropylpiperidin-4-yl)(methyl)amino][1,3]thiazolo[5,4-d][1,3]thiazol-2-yl}-5-(1H-pyrazol-4-yl)pyridin-3-ol] was 100 to 500 nM; that for `CC(C)N1CCC(N(C)c2nc3sc(-c4ncc(-c5cn[nH]c5)cc4O)nc3s2)CC1` [Compound 205, 2-(5-{methyl[1-(propan-2-yl)piperidin-4-yl]amino}[1,3]thiazolo[5,4-d][1,3]thiazol-2-yl)-5-(1H-pyrazol-4-yl)pyridin-3-ol] was at most 100 nM.
